Laboratory results published in PubChem BioAssay (NCI).
Where “and” joins values, the source holds several entries; their conditions need not be identical. Equal entries are not always repeated.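 Step 1: Grow cells in 96-well plates. Step 2: Expose to compound for 48 hours at 5 concentrations. Step 3: Interpolate endpoints linearly; if unreached, use highest concentration. The concentration for 50% growth inhibition is given as GI50. TGI marks complete inhibition of growth.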

What was measured:
Assay in all cases: growth of human tumour cells (NCI), 48 h
[1] = test system: NCI-H23 lung
[2] = test system: OVCAR-5 ovarian
[3] = test system: ACHN renal
[4] = test system: MOLT-4 leukemia
[5] = test system: UACC-257 melanoma
[6] = test system: NCI/ADR-RES ovarian
[7] = test system: SK-MEL-5 melanoma
[8] = test system: UACC-62 melanoma
[9] = test system: SNB-19 CNS
[10] = test system: HCT-116 colon

SMILES | GI50 [1] | TGI [1] | GI50 [2] | TGI [2] | GI50 [3] | TGI [3] | GI50 [4] | TGI [4] | GI50 [5] | TGI [5] | GI50 [6] | TGI [6] | GI50 [7] | TGI [7] | GI50 [8] | TGI [8] | GI50 [9] | TGI [9] | TGI [10] | GI50 [10]
CN(C)c1ccc(N=C(C#N)c2nc(N)nc(N3CCOCC3)n2)cc1 | > 100 µM | > 100 µM | > 100 µM | > 100 µM | 23.3 µM | 68.4 µM | 60.8 µM | > 100 µM | > 100 µM | > 100 µM | 27.1 µM | 62.8 µM | 40.4 µM | > 100 µM | 46.3 µM | > 100 µM | > 100 µM | > 100 µM | – | –
CC(=O)OCC1OC(n2cnc3c(I)nc(I)nc32)C(OC(C)=O)C1OC(C)=O (configuration not stated) | – | 16.7 µM | – | 35.1 µM | – | 21.8 µM | – | 24.8 µM | – | 27.5 µM | – | – | – | 26.1 µM | – | 27.2 µM | – | 25 µM | 16.7 µM | –
Clc1ccc(C2=NN(c3ccccc3)C3c4cc(Br)ccc4OCC23)cc1 (configuration not stated) | – | > 100 µM | – | > 100 µM | – | > 100 µM | – | > 100 µM | – | > 100 µM | – | – | – | > 100 µM | – | – | – | > 100 µM | > 100 µM | –
Cc1cc(N(CCC#N)CCC#N)ccc1N=Nc1ccc([N+](=O)[O-])cc1 | – | > 100 µM | – | > 100 µM | – | > 100 µM | – | > 100 µM | – | > 100 µM | – | – | – | > 10 µM | – | > 10 µM | – | 57.3 µM | 31.6 µM | –
COC(=O)C12C3C=CC(O3)C1C1C=CC2O1 (configuration not stated) | – | > 100 µM | – | > 100 µM | – | > 100 µM | – | > 100 µM | – | > 100 µM | – | – | – | > 100 µM | – | – | – | > 100 µM | – | –
COc1ccc(Nc2nc3c(N)cc(C(F)(F)F)cc3nc2-c2ccccc2)cc1 | – | > 100 µM | – | > 100 µM | – | > 100 µM | – | > 100 µM | – | > 100 µM | – | – | – | > 100 µM | – | > 100 µM | – | > 100 µM | > 100 µM | –
CCN1N=CSC12C(=O)N(c1ccccc1)C(=O)N2c1ccccc1 (configuration not stated) | – | > 100 µM | – | – | – | > 100 µM | – | > 100 µM | – | > 100 µM | – | – | – | > 100 µM | – | > 100 µM | – | > 100 µM | > 100 µM | –
COc1cc(-c2[nH]ncc2CCCC(=O)Nc2ccccc2[N+](=O)[O-])ccc1O | – | > 100 µM | – | > 100 µM | – | > 100 µM | – | > 100 µM | – | > 100 µM | – | – | – | > 100 µM | – | > 100 µM | – | – | > 100 µM | –
C=C1C(=O)C23C(O)C1CCC2C12CO[C@]3(O)[C@@H](O)C1C(C)(C)CCC2O (some centres not stated) | – | 43.4 µM | – | 34.5 µM | – | 27.2 µM | – | > 38.9 µM | – | 23.8 µM | – | – | – | 37 µM | – | 26.4 µM | – | 28.6 µM | 15.5 µM | –
COc1ccc(Br)c(CCCCC(=O)O)c1 | – | > 100 µM | – | – | – | > 100 µM | – | > 100 µM | – | > 100 µM | – | – | – | > 100 µM | – | > 100 µM | – | > 100 µM | > 100 µM | –
O=[N+]([O-])c1ccc(N=Nc2c(O)[nH]c3ccc(Br)cc23)c([N+](=O)[O-])c1 | – | 8.28 µM | – | – | – | 9.44 µM | – | 26.2 µM | – | 15.6 µM | – | – | – | 3.49 µM | – | 16.2 µM | – | 17.1 µM | 3.09 µM | –
CCOC(=O)C1=C(O)CSC1=Nc1ccc(N=C2SCC(O)=C2C(=O)OCC)cc1 | – | – | – | 54 µM | – | 67.4 µM | – | – | – | 75.5 µM | – | – | – | 44.3 µM | – | 44.2 µM | – | > 100 µM | 35.2 µM | –
C[CH2][Sn]([CH2]C)([O]C(=O)c1cc(OC)c(OC)c(OC)c1)[O][Sn]([CH2]C)([CH2]C)[O]C(=O)c1cc(OC)c(OC)c(OC)c1 | 16.7 µM | 36.5 µM | > 100 µM | > 100 µM | 21.2 µM | 40.8 µM | 25.8 µM | > 85.8 µM | 21.3 µM | 52 µM | – | – | 74.4 µM | > 100 µM | 19.3 µM | 36.7 µM | > 75.1 µM | > 100 µM | > 100 µM | 68.2 µM
COc1cc(C2c3cc4c(cc3[C@@H](OCCN)[C@H]3COC(=O)C23)OCO4)cc(OC)c1O (some centres not stated) | – | 0.731 µM | – | 3.6 µM | – | 2.01 µM | – | 0.733 µM | – | 18.2 µM | – | – | – | 1.49 µM | – | 0.579 µM | – | 1.93 µM | 4.89 µM | –
Fc1cccc(C=NC23CC4CC(CC(C4)C2)C3)c1 | – | > 100 µM | – | > 100 µM | – | > 100 µM | – | > 100 µM | – | > 100 µM | – | – | – | – | – | > 100 µM | – | > 100 µM | > 100 µM | –
CN(C)CC1CCCC(CN(C)C)C1=O (configuration not stated) | 5.35 µM and 20.7 µM | 18.5 µM and 43.4 µM | – | 32.7 µM and 33.7 µM | – | 2.92 µM and 3.52 µM | 0.293 µM | 1.14 µM and 2.08 µM | – | 4.49 µM and 5.8 µM | – | – | – | 21 µM and 30.3 µM | 8.32 µM and 18 µM | 18.3 µM and 33.4 µM | – | 68 µM and > 65.4 µM | 3.64 µM and 7.98 µM | 1.66 µM and 3.36 µM
NC(=NCc1ccccc1)N/N=C\c1ccnc2ccccc12 | – | 31.7 µM | – | 32.7 µM | – | 32 µM | – | 46 µM | – | 8.63 µM | – | 35.6 µM | – | 20 µM | – | 29.4 µM | – | 36.9 µM | – | –
CCOC(=O)C12CN(C34CC5CC(CC(C5)C3)C4)CC(C(=O)OCC)(C1=O)C(c1ccccc1)OC2c1ccccc1 (configuration not stated) | – | > 100 µM | – | > 100 µM | – | > 100 µM | – | > 100 µM | – | > 100 µM | – | – | – | > 100 µM | – | > 100 µM | – | > 100 µM | – | –
COC(=O)CC(CC(=O)C(=O)OC)C(=O)OC (configuration not stated) | – | > 100 µM | – | > 100 µM | – | > 100 µM | – | > 100 µM | – | > 100 µM | – | – | – | > 100 µM | – | > 100 µM | – | > 100 µM | > 100 µM | –
COc1ccc(C(=O)Nc2ccccc2)cc1[N+](=O)[O-] | – | > 100 µM | – | – | – | – | – | > 100 µM | – | > 100 µM | – | – | – | > 100 µM | – | > 100 µM | – | > 100 µM | – | –
CCOc1ccc(NC(=O)/C(=C/c2ccccc2)C(C)=O)cc1 | – | 24.8 µM | – | 36.5 µM | – | 35.3 µM | – | 19.5 µM | – | 27.9 µM | – | – | – | 25.6 µM | – | 20.1 µM | – | 24.9 µM | 17.5 µM | –
